From PMC6957264 (Bioconjugate chemistry, 2017)

Columns and labels:
PKCδ C1b domain = PKCδ C1b domain (Mus musculus, UniProt P28867); assay: [3H]PDBu competitive binding assay, isolated C1b domain of PKCδ; settings: read-out: Kd for the binding of [3H]PDBu to the PKCδ C1b
[1] = test system: EGFP-tagged PKCδ in CHO cells; assay: Translocation of EGFP-tagged PKCδ in CHO cells, confocal microscopy; format: cell-based, Chinese hamster; settings: 10 μM compound, images at 0, 5 and 10 min
isolated PKCδ C1a domain = settings: cited from earlier work
isolated PKCδ C1b domain = settings: read-out: Kd for the isolated PKCδ C1b domain; cited from earlier work
[2] = test system: EGFP-tagged PKCε in LNCaP cells; assay: Translocation of GFP-tagged PKCε in LNCaP cells, confocal microscopy; format: cell-based, human; settings: 1 μM, single experiment
[3] = test system: C1a and C1b domains of PKCε; settings: C1a vs C1b; cited from earlier work

Sequence of PKCδ C1b domain (P28867 231-280 limits assumed): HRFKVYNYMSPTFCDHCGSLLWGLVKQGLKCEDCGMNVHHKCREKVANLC

| Compound | Kd (PKCδ C1b domain) | translocation of EGFP-PKCδ from cytosol to plasma membranes [1] | difference in Kd between isolated PKCδ C1a and C1b domains (isolated PKCδ C1a domain; C1a vs C1b, isolated domains) | Kd (isolated PKCδ C1a domain; read-out: Kd for the isolated PKCδ C1a domain) | Kd (isolated PKCδ C1b domain) | plasma membrane translocation of PKCε [2] | difference in affinity between the C1a and C1b domains of PKCε [3] |
| --- | --- | --- | --- | --- | --- | --- | --- |
| CCCC(=O)O[C@@H]1[C@@H](C)[C@@]2(O)[C@@H](C=C(CO)C[C@]3(O)C(=O)C(C)=C[C@@H]23)[C@@H]2C(C)(C)[C@]12OC(=O)CCC [PDBu, phorbol 12,13-dibutyrate] | 190 pM | not observed more clearly than those by monomeric and dimeric DAG–lactones | 6 fold | 2000 pM | 330 pM | – | – |
| CCCCCCCCCCCCCC(=O)O[C@@H]1[C@@H](C)[C@@]2(O)[C@@H](C=C(CO)C[C@]3(O)C(=O)C(C)=C[C@@H]23)[C@@H]2C(C)(C)[C@]12OC(C)=O [PMA, phorbol 12-myristate 13-acetate] | – | – | – | – | – | dramatic plasma membrane translocation | ≤ 3 fold |
| sn-1,2-diacylglycerol [DAG] | – | – | – | – | – | – | ≤ 3 fold |
